Measurements: ChEMBL document CHEMBL3734733, “Optimization of on-resin palladium-catalyzed Sonogashira cross-coupling reaction for peptides and its use in a structure-activity relationship study of a class B GPCR ligand” (Eur J Med Chem, 2015)
Activity calls are given as the source filed them. The calls are words filed in the database; no cut-off is given here.

What was measured:
[1] = biological target: T1, Vasoactive intestinal polypeptide receptor 1 (Homo sapiens, UniProt P32241); assay: Displacement of Ac-[125I]-PACAP27 from recombinant human VPAC1 expressed in CHO cells after 90 mins by gamma counting analysis; type: cell-based
T1 sequence (P32241 whole entry): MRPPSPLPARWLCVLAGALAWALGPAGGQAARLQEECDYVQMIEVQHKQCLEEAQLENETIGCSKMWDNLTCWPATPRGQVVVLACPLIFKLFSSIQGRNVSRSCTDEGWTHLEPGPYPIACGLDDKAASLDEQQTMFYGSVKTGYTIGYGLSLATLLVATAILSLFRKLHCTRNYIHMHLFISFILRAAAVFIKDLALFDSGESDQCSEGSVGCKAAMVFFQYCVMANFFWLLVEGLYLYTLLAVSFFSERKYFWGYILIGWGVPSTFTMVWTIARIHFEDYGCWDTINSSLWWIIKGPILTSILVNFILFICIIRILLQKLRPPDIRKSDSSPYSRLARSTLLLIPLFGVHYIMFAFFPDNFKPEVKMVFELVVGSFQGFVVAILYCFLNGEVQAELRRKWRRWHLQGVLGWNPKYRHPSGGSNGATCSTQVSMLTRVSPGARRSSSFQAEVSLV

[2] = biological target: T2, Vasoactive intestinal polypeptide receptor 2 (Homo sapiens, UniProt P41587); assay: Displacement of Ac-[125I]-PACAP27 from recombinant human VPAC2 expressed in CHO cells after 90 mins by gamma counting analysis; type: cell-based
T2 sequence (P41587 whole entry): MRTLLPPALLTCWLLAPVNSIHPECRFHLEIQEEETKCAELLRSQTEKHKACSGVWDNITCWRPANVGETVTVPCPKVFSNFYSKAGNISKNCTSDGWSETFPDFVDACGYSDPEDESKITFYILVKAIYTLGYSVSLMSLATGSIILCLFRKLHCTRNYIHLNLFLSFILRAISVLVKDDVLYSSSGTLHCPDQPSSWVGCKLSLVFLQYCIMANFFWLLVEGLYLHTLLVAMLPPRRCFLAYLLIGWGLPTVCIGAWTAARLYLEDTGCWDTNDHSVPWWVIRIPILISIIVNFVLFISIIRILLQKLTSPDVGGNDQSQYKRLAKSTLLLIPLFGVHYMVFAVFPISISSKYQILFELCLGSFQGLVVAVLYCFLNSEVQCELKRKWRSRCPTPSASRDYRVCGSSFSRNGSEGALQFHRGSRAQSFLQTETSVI

[3] = system: SH-SY5Y; assay: Neuroprotective activity against MPP+-induced toxicity in human SH-SY5Y cells assessed as increase in cell viability at 100 nM preincubated for 4 hrs followed by incubation with MPP+ for 20 hrs measured after 24 hrs by MTS assay relative to control; type: functional
[4] = biological target: T3, Pituitary adenylate cyclase-activating polypeptide type I receptor (Homo sapiens, UniProt P41586); assay: Displacement of Ac-[125I]-PACAP27 from recombinant human PAC1 expressed in CHO cells after 90 mins by gamma counting analysis; type: cell-based
Target sequence in this assay (P41586 whole entry): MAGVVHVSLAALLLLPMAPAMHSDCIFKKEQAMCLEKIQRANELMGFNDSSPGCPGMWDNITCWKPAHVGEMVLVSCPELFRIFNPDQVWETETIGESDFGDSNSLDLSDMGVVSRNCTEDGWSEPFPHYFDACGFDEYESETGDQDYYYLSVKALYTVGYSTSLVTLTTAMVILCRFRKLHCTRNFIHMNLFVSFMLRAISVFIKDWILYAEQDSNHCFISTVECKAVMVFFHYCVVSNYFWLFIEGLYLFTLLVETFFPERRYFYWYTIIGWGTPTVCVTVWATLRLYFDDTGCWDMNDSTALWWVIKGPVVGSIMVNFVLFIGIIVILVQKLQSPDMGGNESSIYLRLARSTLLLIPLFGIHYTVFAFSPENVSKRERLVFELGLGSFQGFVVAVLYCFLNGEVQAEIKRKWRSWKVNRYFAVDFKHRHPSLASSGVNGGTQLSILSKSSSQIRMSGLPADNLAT

[5] = biological target: T3, Pituitary adenylate cyclase-activating polypeptide type I receptor; assay: Activation of PAC1 in human SH-SY5Y cells assessed as stimulation of forskolin-induced cAMP production at 10^-7 to 10^-5 M after 30 mins; type: cell-based
Target sequence in this assay (P41586 21-468 limits assumed): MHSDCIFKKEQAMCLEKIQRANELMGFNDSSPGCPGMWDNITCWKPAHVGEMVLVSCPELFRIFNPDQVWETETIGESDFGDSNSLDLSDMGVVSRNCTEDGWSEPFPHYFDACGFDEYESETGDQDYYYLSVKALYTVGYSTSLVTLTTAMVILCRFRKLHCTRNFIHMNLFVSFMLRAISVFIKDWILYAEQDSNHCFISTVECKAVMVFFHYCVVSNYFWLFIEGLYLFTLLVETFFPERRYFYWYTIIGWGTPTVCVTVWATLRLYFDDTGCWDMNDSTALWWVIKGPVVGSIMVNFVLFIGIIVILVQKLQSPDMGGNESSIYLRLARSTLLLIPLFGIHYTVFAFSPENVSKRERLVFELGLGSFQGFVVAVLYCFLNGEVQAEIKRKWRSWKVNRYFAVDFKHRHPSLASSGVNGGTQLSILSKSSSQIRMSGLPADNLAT

[6] = biological target: T4, Vasoactive intestinal polypeptide receptor 1 (Homo sapiens) (UniProt P32241); assay: Activation of VPAC1 in human SH-SY5Y cells assessed as stimulation of forskolin-induced cAMP production at 10^-7 to 10^-5 M after 30 mins; type: functional, cell-based
T4 sequence (whole entry): T1 sequence (P32241 whole entry)

[7] = biological target: T5, Vasoactive intestinal polypeptide receptor 2 (Homo sapiens) (UniProt P41587); assay: Activation of VPAC2 in human SH-SY5Y cells assessed as stimulation of forskolin-induced cAMP production at 10^-7 to 10^-5 M after 30 mins; type: functional, cell-based
T5 sequence (whole entry): T2 sequence (P41587 whole entry)

| IC50 ([1]; read-out: pIC50 (converted)) | IC50 ([2]; read-out: pIC50 (converted)) | IC50 ([4]; read-out: IC50) | IC50 ([1]; read-out: IC50) | IC50 ([2]; read-out: IC50) | Activity [5] | Activity [6] | Activity [7] | IC50 ([4]; read-out: pIC50 (converted)) | Compound | Activity [3] |
| --- | --- | --- | --- | --- | --- | --- | --- | --- | --- | --- |
| 0.0141 µM | 0.0229 µM |  |  |  |  |  |  |  | CC[C@H](C)[C@H](NC(=O)CNC(=O)[C@H](CC(=O)O)NC(=O)[C@H](CO)NC(=O)[C@@H](N)Cc1cnc[nH]1)C(=O)N[C@@H](Cc1ccc(-c2ccccc2)cc1)C(=O)N[C@H](C(=O)N[C@@H](CC(=O)O)C(=O)N[C@@H](CO)C(=O)N[C@@H](Cc1ccc(O)cc1)C(=O)N[C@@H](CO)C(=O)N[C@@H](CCCNC(=N)N)C(=O)N[C@@H](Cc1ccc(O)cc1)C(=O)N[C@@H](CCCNC(=N)N)C(=O)N[C@@H](CCCCN)C(=O)N[C@@H](CCC(N)=O)C(=O)N[C@@H](CCSC)C(=O)N[C@@H](C)C(=O)N[C@H](C(=O)N[C@@H](CCCCN)C(=O)N[C@@H](CCCCN)C(=O)N[C@@H](Cc1ccc(O)cc1)C(=O)N[C@@H](CC(C)C)C(=O)N[C@@H](C)C(=O)N[C@@H](C)C(=O)N[C@H](C(=O)N[C@@H](CC(C)C)C(N)=O)C(C)C)C(C)C)[C@@H](C)O |  |
|  |  |  |  |  |  |  |  |  | CC[C@H](C)[C@H](NC(=O)CNC(=O)[C@H](CC(=O)O)NC(=O)[C@H](CO)NC(=O)[C@@H](N)Cc1cnc[nH]1)C(=O)N[C@@H](Cc1ccccc1)C(=O)N[C@H](C(=O)N[C@@H](CC(=O)O)C(=O)N[C@@H](CO)C(=O)N[C@@H](Cc1ccc(O)cc1)C(=O)N[C@@H](CO)C(=O)N[C@@H](CCCNC(=N)N)C(=O)N[C@@H](Cc1ccc(O)cc1)C(=O)N[C@@H](CCCNC(=N)N)C(=O)N[C@@H](CCCCN)C(=O)N[C@@H](CCC(N)=O)C(=O)N[C@@H](CCSC)C(=O)N[C@@H](C)C(=O)N[C@H](C(=O)N[C@@H](CCCCN)C(=O)N[C@@H](CCCCN)C(=O)N[C@@H](Cc1ccc(O)cc1)C(=O)N[C@@H](CC(C)C)C(=O)N[C@@H](C)C(=O)N[C@@H](C)C(=O)N[C@H](C(=O)N[C@@H](CC(C)C)C(N)=O)C(C)C)C(C)C)[C@@H](C)O | 85% |
|  |  | 0.057 µM | 0.009 µM | 0.036 µM | Active | Active | Active |  | CC[C@H](C)[C@H](NC(=O)CNC(=O)[C@H](CC(=O)O)NC(=O)[C@H](CO)NC(=O)[C@@H](N)Cc1cnc[nH]1)C(=O)N[C@@H](Cc1ccc(C#Cc2ccc(F)cc2)cc1)C(=O)N[C@H](C(=O)N[C@@H](CC(=O)O)C(=O)N[C@@H](CO)C(=O)N[C@@H](Cc1ccc(O)cc1)C(=O)N[C@@H](CO)C(=O)N[C@@H](CCCNC(=N)N)C(=O)N[C@@H](Cc1ccc(O)cc1)C(=O)N[C@@H](CCCNC(=N)N)C(=O)N[C@@H](CCCCN)C(=O)N[C@@H](CCC(N)=O)C(=O)N[C@@H](CCSC)C(=O)N[C@@H](C)C(=O)N[C@H](C(=O)N[C@@H](CCCCN)C(=O)N[C@@H](CCCCN)C(=O)N[C@@H](Cc1ccc(O)cc1)C(=O)N[C@@H](CC(C)C)C(=O)N[C@@H](C)C(=O)N[C@@H](C)C(=O)N[C@H](C(=O)N[C@@H](CC(C)C)C(N)=O)C(C)C)C(C)C)[C@@H](C)O | 85% |
|  |  | 0.053 µM | 0.012 µM | 0.053 µM | Active | Active | Active | 0.0447 µM | CC[C@H](C)[C@H](NC(=O)CNC(=O)[C@H](CC(=O)O)NC(=O)[C@H](CO)NC(=O)[C@@H](N)Cc1cnc[nH]1)C(=O)N[C@@H](Cc1ccc(C#Cc2ccccc2)cc1)C(=O)N[C@H](C(=O)N[C@@H](CC(=O)O)C(=O)N[C@@H](CO)C(=O)N[C@@H](Cc1ccc(O)cc1)C(=O)N[C@@H](CO)C(=O)N[C@@H](CCCNC(=N)N)C(=O)N[C@@H](Cc1ccc(O)cc1)C(=O)N[C@@H](CCCNC(=N)N)C(=O)N[C@@H](CCCCN)C(=O)N[C@@H](CCC(N)=O)C(=O)N[C@@H](CCSC)C(=O)N[C@@H](C)C(=O)N[C@H](C(=O)N[C@@H](CCCCN)C(=O)N[C@@H](CCCCN)C(=O)N[C@@H](Cc1ccc(O)cc1)C(=O)N[C@@H](CC(C)C)C(=O)N[C@@H](C)C(=O)N[C@@H](C)C(=O)N[C@H](C(=O)N[C@@H](CC(C)C)C(N)=O)C(C)C)C(C)C)[C@@H](C)O | 85% |
